In patent US5736556A, “Tropane-2-aldoxime derivatives as nevro transmitter reuptake inhibitors” (NeuroSearch A/S, priority 1994, dated 1998) one finds ED50 and IC50 data, which are given here for two compounds.

Test [1] deals with immobility time of mice suspended by the tail. The test is described as follows: Tail Suspension. Type of test: in vivo, mice (female NMRI). To be noted: Mus musculus, 0.5 h, oral, 30 min before test, dose reducing the immobility to 100 sec. The method, then: A decrease in the immobility time by mice suspended in their tail is seen after systemic administration of central stimulants and by antidepressants (Steru, L., Chermat, R., Thierry, B. & Simon, P. (1985) The tail suspension test: A new method for screening antidepressants in mice. Psychopharmacology 85:367-370.).
Female NMRI mice (20-25 g) habituated to the room (12 hours light/dark) for at least 16 hours and housed 25 per cage are used. The mice are suspended by the tail with adhesive tape to a rod 30 cm above the lab. bench 30 min after an oral administation of vehicle or drug. For the next 6 min the accumulated duration of immobility defined as no movements by the body or extremities (however head movements are not defined as movements) are noted, Six mice per dose are used.
Saline or vehicle treated mice have immobility time scores between 160-180 sec in average. An ED50 -value is calculated by graphical interpolation from at least 3 doses as the dose reducing the immobility to 100 sec.

Test [2] has as its target T1, dopamine transporter (^3 H-dopamine uptake) (Rattus norvegicus, UniProt P23977).
T1 construct: Corpi striati from male Wistar rats (150-200 g) are homogenized; from tissue; host or cells: P2 synaptosomes of corpus striatum, male Wistar rats
The test can be described thus: In vitro inhibition of ^3 H-dopamine (^3 H-DA) uptake in striatal synaptosomes. Type of test: biochemical, rat (male Wistar). The note with it: ^3 H-DA 1 nM, 25 min at 37° C. An excerpt:
(§1) The compounds of the invention have also been tested for their ability to inhibit reuptake of dopamine(DA) noradrenalin(NA) and serotonin(5-HT) in synaptosomes.
(§2) Specific neurotransmitter transporters/uptake sites on nerve terminals presumably function to terminate neuronal signaling by removing the neurotransmitters dopamine, noradrenaline and serotonin, respectively, from the synaptic cleft. The activity of the transporter integral proteins can be measured in vitro by synaptosomal uptake of ^3 H-dopamine, ^3 H-noradrenaline and ^3 H-serotonine, respectively.
In vitro inhibition of ^3 H-dopamine (^3 H-DA) uptake in striatal synaptosomes
Tissue preparations: Preparations are performed at 0°-4° C. unless otherwise indicated. Corpi striati from male Wistar rats (150-200 g) are homogenized for 5-10 sec in 100 volumes of ice-cold 0.32M sucrose containing 1 mM pargyline using an Ultra-Turrax homogenizer. Monoamine oxidase activity will be inhibited in the presence of pargyline. The homogenate is centrifuged at 1000×g for 10 min. The resulting supermatant is then centrifuged at 27,000×g for 50 min and the supernatant is discarded. The pellet (P2) is resuspended in oxygenated (equilibrated with an atmosphere of 96% O2 : 4% CO2 for at least 30 min) Krebs-Ringer incubation buffer (8000 ml per g of original tissue) at pH 7.2 containing 122 mM NaCl, 0.16 mM EDTA, 4.8 mM KCl, 12.7 mM Na2 HPO4, 3.0 mM NaH2 PO4, 1.2 mM MgSO4, 1 mM CaCl2, 10 mM glucose and 1 mM ascorbic acid.
Assay: Aliquots of 4.0 ml tissue suspension are added to 100 μl of test solution and 100 μl of ^3 H-DA (1 nM, final concentration), mixed and incubated for 25 min at 37° C. Non-specific uptake is determined using benztropine (10 μM, final concentration). After incubation the samples are poured directly onto Whatman GF/C glass fibre filters under suction. […] The amount of radioactivity on the filters is determined by conventional liquid scintillation counting. Specific uptake is calculated as the difference between total uptake and non-specific uptake. […]

The target of another test is dopamine transporter (Mus musculus, UniProt Q61327). The test can be described thus: In vivo inhibition of ^3 H-WIN 35428 binding (striatum). Also on record: from tissue; host or cells: striatum of living female NMRI mice; species or system mice (female NMRI). The note with it: ip, mice, inhibition of specific ^3 H-WIN 35428 binding in striatum. The method, then: All test substances used are solutions or suspensions prepared in 10% TWEEN 80. Groups of three female NMRI mice (25 g) are injected i.p. with the test substance. […] Tissues are weighed and dissolved for 36 h with 1 ml 2% sodium-laurylsulfat. The solubilized tissue is then added 2 ml of scintillation cocktail, and the amount of radioactivity per mg of tissue is counted by conventional liquid scintillation counting. Groups of untreated mice serves as controls.
Sequence of dopamine transporter (Q61327 whole entry): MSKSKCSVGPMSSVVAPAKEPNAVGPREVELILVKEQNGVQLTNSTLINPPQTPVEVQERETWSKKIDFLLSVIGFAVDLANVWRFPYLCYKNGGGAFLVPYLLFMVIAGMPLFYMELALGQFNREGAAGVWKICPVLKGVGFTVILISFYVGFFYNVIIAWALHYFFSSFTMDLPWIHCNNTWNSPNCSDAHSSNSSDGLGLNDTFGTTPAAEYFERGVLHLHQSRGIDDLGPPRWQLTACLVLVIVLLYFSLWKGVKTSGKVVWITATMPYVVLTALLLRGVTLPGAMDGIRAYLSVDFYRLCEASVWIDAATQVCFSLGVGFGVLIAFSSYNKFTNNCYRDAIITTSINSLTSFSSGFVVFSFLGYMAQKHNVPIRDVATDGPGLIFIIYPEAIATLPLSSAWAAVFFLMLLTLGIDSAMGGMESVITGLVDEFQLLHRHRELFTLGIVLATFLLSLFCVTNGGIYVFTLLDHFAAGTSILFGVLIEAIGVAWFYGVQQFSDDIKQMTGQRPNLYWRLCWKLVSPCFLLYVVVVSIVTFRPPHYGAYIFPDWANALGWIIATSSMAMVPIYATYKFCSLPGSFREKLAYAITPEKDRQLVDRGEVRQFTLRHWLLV
The ED50 value is determined from dose response curves.
ED50 =(administered dose, mg/kg)×1/(C0 /Cx -1), where C0 is specific binding in controls and Cx is the specific binding in mice treated with test substance.

Test [3] deals with T2, ^3 H-5-HT (serotonin) uptake (serotonin transporter) (Rattus norvegicus, UniProt P31652).
T2 construct: Cerebral cortices from male Wistar rats (150-200 g) are homogenized; from tissue; host or cells: P2 synaptosomes of cerebral cortex, male Wistar rats
T2 sequence (P31652 whole entry): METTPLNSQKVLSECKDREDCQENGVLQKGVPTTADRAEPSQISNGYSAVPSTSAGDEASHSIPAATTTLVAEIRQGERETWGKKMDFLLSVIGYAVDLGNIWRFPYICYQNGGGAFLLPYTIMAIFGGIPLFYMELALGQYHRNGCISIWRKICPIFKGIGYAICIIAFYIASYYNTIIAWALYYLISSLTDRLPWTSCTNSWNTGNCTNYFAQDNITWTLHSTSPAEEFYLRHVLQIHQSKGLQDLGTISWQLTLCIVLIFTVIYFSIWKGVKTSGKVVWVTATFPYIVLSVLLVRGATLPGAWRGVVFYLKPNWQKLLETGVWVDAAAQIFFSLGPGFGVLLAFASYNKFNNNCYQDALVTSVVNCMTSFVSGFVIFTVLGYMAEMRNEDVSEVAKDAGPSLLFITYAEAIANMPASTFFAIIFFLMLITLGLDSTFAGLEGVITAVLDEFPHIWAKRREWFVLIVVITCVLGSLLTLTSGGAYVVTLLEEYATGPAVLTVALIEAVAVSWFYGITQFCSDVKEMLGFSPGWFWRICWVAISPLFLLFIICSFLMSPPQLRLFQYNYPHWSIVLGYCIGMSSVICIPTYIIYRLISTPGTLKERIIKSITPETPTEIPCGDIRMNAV
The test can be described thus: In vitro inhibition of ^3 H-5-hydroxytryptamine (^3 H-5-HT, serotonin) uptake in cortical synaptosomes. Type of test: biochemical, rat (male Wistar). The note with it: ^3 H-5-HT 1 nM, 30 min at 37° C.
Source text: as §1, §2
In vitro inhibition of ^3 H-5-hydroxytryptamine ^3 H-5-HT, serotonin) uptake in cortical synaptosomes
Tissue preparation: Preparations are performed at 0°-4° C. unless otherwise indicated. Cerebral cortices from male Wistar rats (150-200 g) are homogenized for 5-10 sec in 100 volumes of ice-cold 0.32M sucrose containing 1 mM pargyline using an Ultra-Turrax homogenizer. […]
Assay: Aliquots of 4.0 ml tissue suspension are added to 100 μl of test solution and 100 μl of ^3 H-5-HT (1 nM, final concentration), mixed and incubated for 30 min at 37° C. Non-specific uptake is determined using citalopram (1 μM, final concentration). […] The amount of radioactivity on the filters is determined by conventional liquid scintillation counting. Specific uptake is calculated as the difference between total uptake and non-specific uptake. […]

Structures are written as SMILES. Structures can show the parent of a compound that is named as a salt.

T1 sequence (P23977 whole entry): as the sequence (Q61327 whole entry) above, with P21S, V57A, S194A, R600H, V619L counted along it

In general, ED50 refers to the dose that gives a 50% effect, or the effect in half of the subjects. The low end stands for greater potency, the high end for weaker potency. Broadly, the IC50 is the concentration needed to halve the response being measured. Read a low IC50 as greater potency in that assay. As for `CON=C[C@@H]1[C@@H](c2ccc(Cl)c(Cl)c2)C[C@@H]2CC[C@H]1N2C` [(1R,2R,3S)-3-(3,4-dichlorophenyl)-tropane-2-O-methyl-aldoxime, H2 SO4], the 50% effective dose (ED50) amounted to 0.1 mg/kg in test [1] and 0.9 mg/kg on dopamine transporter. In addition, the half-inhibitory concentration (IC50) was determined as 3 nM in test [2] and 13 nM in test [3].

Regarding `CON=C[C@@H]1[C@@H](c2ccc(Cl)c(Cl)c2)C[C@@H]2CC[C@H]1N2` [(1R,2R,3S)-N-Normethyl-3-(3,4-dichlorophenyl)tropane-2-O-methyl-aldoxime, hydrochloride], the ED50 in test [1] amounted to 0.95 mg/kg; on dopamine transporter, 1.4 mg/kg. Moreover, the values for the IC50 in test [2] and in test [3] were 2 nM and 1.7 nM, respectively.
